Data: patent US9045482B2, “Pyrido[4,3-B]indoles and methods of use” (Medivation Technologies, Inc., priority 2009, dated 2015)

Columns and labels:
[1] = molecular target: T1, human recombinant adrenergic α2B receptor (Homo sapiens, UniProt P18089); test: Adrenergic α2B radioligand binding ([3H]Rauwolscine); settings: 0.1 μM ligand conc.
T1 construct: expressed in transfected cells; host or cells: Chinese hamster ovary (CHO-K1) cells
T1 sequence (P18089 1-450): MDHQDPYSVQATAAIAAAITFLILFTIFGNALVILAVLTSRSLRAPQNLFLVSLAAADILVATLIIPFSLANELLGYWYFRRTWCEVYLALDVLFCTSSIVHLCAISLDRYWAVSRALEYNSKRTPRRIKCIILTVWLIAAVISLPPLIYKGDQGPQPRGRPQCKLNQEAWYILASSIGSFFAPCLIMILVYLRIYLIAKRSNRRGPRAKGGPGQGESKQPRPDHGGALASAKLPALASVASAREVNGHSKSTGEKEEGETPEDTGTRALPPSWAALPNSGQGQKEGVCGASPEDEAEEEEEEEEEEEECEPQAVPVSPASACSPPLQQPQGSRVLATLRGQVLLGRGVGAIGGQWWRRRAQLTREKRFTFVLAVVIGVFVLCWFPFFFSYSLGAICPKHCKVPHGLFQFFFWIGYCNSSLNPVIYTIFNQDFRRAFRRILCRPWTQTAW
Description: To evaluate in radioligand binding assays the activity of compounds of the invention, human recombinant adrenergic α2B receptor expressed in Chinese hamster ovary (CHO-K1) cells [Uhlen, S. et al., Eur. J. Pharmacol. (1998), 343(1):93] in a modified Tris-HCl buffer (50 mM Tris-HCl, pH 7.4, 12.5 mM MgCl2, 1 mM EDTA, 0.2% BSA) was used. Compounds of the invention were incubated with 2.5 nM [^3H]Rauwolscine for 60 min at 25° C. Non-specific binding was estimated in the presence of 10 μM Prozosin. Receptor proteins were filtered and washed, the filters were then counted to determine [^3H]Rauwolscine specifically bound. Compounds were screened at 1 μM or lower, using 1% DMSO as vehicle. Compounds of the invention were tested in this biochemical assay. Biochemical assay results for representative compounds were presented as the percent inhibition of specific binding in Table 3.

[2] = molecular target: T2, human recombinant serotonin (5-Hydroxytryptamine) 5-HT2A receptor (Homo sapiens, UniProt P28223); test: Serotonin 5-HT2A radioligand binding ([3H]Ketanserin); settings: 0.1 μM ligand concentration
T2 construct: expressed in transfected cells; host or cells: Chinese hamster ovary (CHO-K1) cells
Description: (1997), 68:1998] in a 50 mM Tris-HCl buffer, pH 7.4, was used. Compounds of the invention were incubated with 0.5 nM [^3H]Ketanserin for 60 min at 25° C. Non-specific binding was estimated in the presence of 1 μM Mianserin. Receptor proteins were filtered and washed, the filters were then counted to determine [^3H]Ketanserin specifically bound. Compounds were screened at 1 μM or lower, using 1% DMSO as vehicle. Biochemical assay results are presented as the percent inhibition of specific binding in Table 4.

[3] = molecular target: T3, human recombinant serotonin (5-Hydroxytryptamine) 5-HT6 receptor (Homo sapiens, UniProt P50406); test: Serotonin 5-HT6 radioligand binding ([3H]LSD); settings: 0.1 μM ligand concentration
T3 construct: expressed in transfected cells; host or cells: human HeLa cells
Description: (§1) Compounds of the invention were incubated with 1.5 nM [3H]Lysergic acid diethylamide (LSD) for 120 min at 37° C. […] Receptor proteins were filtered and washed, the filters were then counted to determine [3H]LSD specifically bound. Compounds were screened at 1 μM or lower, using 1% DMSO as vehicle. Biochemical assay results are presented as the percent inhibition of specific binding in Table 4.

[4] = molecular target: human recombinant serotonin (5-Hydroxytryptamine) 5-HT7 receptor (Homo sapiens, UniProt P34969); test: Serotonin 5-HT7 radioligand binding ([3H]LSD); settings: 0.1 μM ligand concentration
Description: as §1, with “of” for “of the”, “5.5” for “1.5”, “[^3H]Lysergic” for “[3H]Lysergic”, “2 h” for “120 min”, “25°” for “37°”, “[^3H]LSD” for “[3H]LSD”

Chain of human recombinant serotonin (5-Hydroxytryptamine) 5-HT7 receptor (P34969 whole entry): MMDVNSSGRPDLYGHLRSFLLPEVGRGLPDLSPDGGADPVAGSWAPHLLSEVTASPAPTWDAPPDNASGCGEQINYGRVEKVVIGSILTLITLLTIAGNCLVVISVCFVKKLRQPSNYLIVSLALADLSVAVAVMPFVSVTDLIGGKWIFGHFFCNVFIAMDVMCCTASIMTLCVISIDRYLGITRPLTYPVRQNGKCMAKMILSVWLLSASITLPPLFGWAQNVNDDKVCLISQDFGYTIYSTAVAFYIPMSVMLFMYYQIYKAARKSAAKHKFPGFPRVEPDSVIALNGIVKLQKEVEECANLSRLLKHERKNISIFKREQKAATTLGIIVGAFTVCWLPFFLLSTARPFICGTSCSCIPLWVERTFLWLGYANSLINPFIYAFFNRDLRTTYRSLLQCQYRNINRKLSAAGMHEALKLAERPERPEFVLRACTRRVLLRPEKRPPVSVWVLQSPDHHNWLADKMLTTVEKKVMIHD
T3 sequence (P50406 whole entry): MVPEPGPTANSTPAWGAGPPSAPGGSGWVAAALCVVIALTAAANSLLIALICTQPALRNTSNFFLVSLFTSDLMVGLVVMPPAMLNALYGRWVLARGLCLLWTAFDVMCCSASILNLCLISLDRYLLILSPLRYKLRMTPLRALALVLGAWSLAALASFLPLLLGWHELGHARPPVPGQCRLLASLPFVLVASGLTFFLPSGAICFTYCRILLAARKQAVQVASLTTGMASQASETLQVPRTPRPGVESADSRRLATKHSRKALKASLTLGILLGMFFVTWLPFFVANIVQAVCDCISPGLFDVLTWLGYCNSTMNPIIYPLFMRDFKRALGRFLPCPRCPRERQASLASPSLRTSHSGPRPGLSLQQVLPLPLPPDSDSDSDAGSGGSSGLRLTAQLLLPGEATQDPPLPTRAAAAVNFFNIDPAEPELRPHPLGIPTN
T2 sequence (P28223 whole entry): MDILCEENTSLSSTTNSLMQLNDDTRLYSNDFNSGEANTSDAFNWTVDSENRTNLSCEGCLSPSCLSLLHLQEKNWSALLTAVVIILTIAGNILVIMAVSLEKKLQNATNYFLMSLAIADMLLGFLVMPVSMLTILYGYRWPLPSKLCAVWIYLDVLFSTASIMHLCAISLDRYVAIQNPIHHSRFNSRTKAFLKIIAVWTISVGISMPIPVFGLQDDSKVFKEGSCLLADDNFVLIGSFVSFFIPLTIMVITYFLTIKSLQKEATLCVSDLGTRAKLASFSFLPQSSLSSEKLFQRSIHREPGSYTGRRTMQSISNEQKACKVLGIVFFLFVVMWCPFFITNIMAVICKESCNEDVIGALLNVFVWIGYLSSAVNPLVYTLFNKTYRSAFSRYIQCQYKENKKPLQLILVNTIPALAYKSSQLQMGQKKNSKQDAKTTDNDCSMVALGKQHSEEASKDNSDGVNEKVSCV

SMILES	Percent Inhibition of ligand binding Adrenergic α2B [1] [%]	Percent Inhibition of ligand binding Serotonin 5-HT2A [2] [%]	Percent Inhibition of ligand binding Serotonin 5-HT6 [3] [%]	Percent Inhibition of ligand binding Serotonin 5-HT7 [4] [%]
Cc1cnc2c(c1)c1c(n2CC(=O)N2CCCCC2)CC2CCCN2C1 (centres unmarked) [Compound 42, 2-(3-methyl-8,9,9a,10-tetrahydro-5H-pyrido[3′,2′:4,5]pyrrolo[3,2-f]indolizin-11(7H)-yl)-1-(piperidin-1-yl)ethanone]	3	1	2	−1
Cc1cnc2c(c1)c1c(n2CC(=O)N2CCCCC2)CCN2CCCC12 (centres unmarked) [Compound 41, 2-(10-methyl-2,3,5,6-tetrahydro-1H-pyrido[3′,2′:4,5]pyrrolo[2,3-g]indolizin-7(11cH)-yl)-1-(piperidin-1-yl)ethanone]	14	−2	8	−5
